The record followed here is patent US20160376237A1, “NOVEL PYRIDINE DERIVATIVES” (Hoffmann-La Roche Inc., priority 2014, published 2016).

The structures appear in SMILES notation.

For the first experiment, the target named is T1, human CB2 receptors (Homo sapiens, UniProt P34972).
T1 construct: expressed in transfected cells; host or cells: CHO cells
T1 sequence (P34972 whole entry): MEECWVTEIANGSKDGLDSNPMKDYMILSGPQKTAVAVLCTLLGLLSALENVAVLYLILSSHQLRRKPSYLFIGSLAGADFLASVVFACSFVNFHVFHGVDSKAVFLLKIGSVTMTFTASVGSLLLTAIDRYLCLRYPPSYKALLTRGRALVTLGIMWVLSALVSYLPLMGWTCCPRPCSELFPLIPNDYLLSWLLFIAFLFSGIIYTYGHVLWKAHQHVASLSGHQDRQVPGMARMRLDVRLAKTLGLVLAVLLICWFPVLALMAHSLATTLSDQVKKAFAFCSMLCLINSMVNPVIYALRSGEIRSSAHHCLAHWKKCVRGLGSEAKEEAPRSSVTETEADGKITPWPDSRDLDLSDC
Kind of experiment: cAMP assay.
Conditions: not given
The format is cell-based. Here is the method:
CHO cells expressing human CB1 or CB2 receptors are seeded 17-24 hours prior to the experiment 50.000 cells per well in a black 96 well plate with flat clear bottom (Corning Costar #3904) in DMEM (Invitrogen No. 31331), 1×HT supplement, with 10% fetal calf serum and incubated at 5% CO2 and 37° C. in a humidified incubator. The growth medium was exchanged with Krebs Ringer Bicarbonate buffer with 1 mM IBMX and incubated at 30° C. for 30 min. Compounds were added to a final assay volume of 100 μl and incubated for 30 min at 30° C. Using the cAMP-Nano-TRF detection kit the assay (Roche Diagnostics) was stopped by the addition of 50 μl lysis reagent (Tris, NaCl, 1.5% Triton X100, 2.5% NP40, 10% NaN3) and 50 μl detection solutions ([…] mAb Alexa700-cAMP 1:[…] Ruthenium-2-AHA-cAMP) and shaken for 2 h at room temperature. The time-resolved energy transfer is measured by a TRF reader (Evotec Technologies GmbH), equipped with a ND:YAG laser as excitation source. The plate is measured twice with the excitation at 355 nm and at the emission with a delay of 100 ns and a gate of 100 ns, total exposure time 10 s at 730 (bandwidth 30 nm) or 645 nm (bandwidth 75 nm), respectively. The FRET signal is calculated as follows: FRET=T730-Alexa730-P(T645-B645) with P=Ru730-B730/Ru645-B645, where T730 is the test well measured at 730 nM, T645 is the test well measured at 645 nm, B730 and B645 are the buffer controls at 730 nm and 645 nm, respectively. cAMP content is determined from the function of a standard curve spanning from […] to 0.13 nM cAMP.
EC50 values were determined using Activity Base analysis (ID Business Solution, Limited).
(cAMP levels reflect the balance of adenylyl cyclase and phosphodiesterase activity.)
The EC50 is the concentration giving half of the maximal effect. `COC(=O)C(C)(C)NC(=O)c1ccc(-c2ccc(Cl)cc2)c(SC)n1` [Example 1, Methyl 2-[[5-(4-chlorophenyl)-6-methylsulfanylpyridine-2-carbonyl]amino]-2-methylpropanoate] gave an EC50 of 344 nM.
`COC(=O)C(C)(C)NC(=O)c1ccc(-c2ccc(Cl)cc2)c(OCC2CC2)n1` [Example 2, Methyl 2-[[5-(4-chlorophenyl)-6-(cyclopropylmethoxy)pyridine-2-carbonyl]amino]-2-methylpropanoate] yielded an EC50 of 48.2 nM.
The same measure, in the same setting: to `CC(C)(NC(=O)c1ccc(-c2ccc(Cl)cc2)c(OCC2CC2)n1)c1ncco1` [Example 3, 5-(4-Chlorophenyl)-6-(cyclopropylmethoxy)-N-[2-(1,3-oxazol-2-yl)propan-2-yl]pyridine-2-carboxamide] belongs 144 nM.
The same measure, in the same setting: to `Cc1nc(C(C)(C)NC(=O)c2ccc(-c3ccc(Cl)cc3)c(OCC3CC3)n2)no1` [Example 4, 5-(4-Chlorophenyl)-6-(cyclopropylmethoxy)-N-[2-(5-methyl-1,2,4-oxadiazol-3-yl)propan-2-yl]pyridine-2-carboxamide] belongs 232 nM.
Regarding `CC(C)(NC(=O)c1ccc(-c2ccccc2)c(OCC2CC2)n1)c1ncco1` [Example 5, 6-(Cyclopropylmethoxy)-N-[2-(1,3-oxazol-2-yl)propan-2-yl]-5-phenylpyridine-2-carboxamide], the EC50 was determined as 34.2 nM.
The same measure, in the same setting: to `CCC(CC)(NC(=O)c1ccc(-c2ccccc2)c(OCC2CC2)n1)C(=O)NC` [Example 6, 6-(Cyclopropylmethoxy)-N-[3-(methylcarbamoyl)pentan-3-yl]-5-phenylpyridine-2-carboxamide] belongs 831 nM; to `CCC(CC)(NC(=O)c1ccc(OCC2CC2)c(-c2cccc(Cl)c2)n1)C(=O)NC` [Example 7, 6-(3-Chlorophenyl)-5-(cyclopropylmethoxy)-N-[3-(methylcarbamoyl)pentan-3-yl]pyridine-2-carboxamide], 51.3 nM; to `COC1CN(c2ccc(C(=O)NC(C)(C)c3noc(C)n3)nc2OCC2CC2)C1` [Example 8, 6-(Cyclopropylmethoxy)-5-(3-methoxyazetidin-1-yl)-N-[2-(5-methyl-1,2,4-oxadiazol-3-yl)propan-2-yl]pyridine-2-carboxamide], 86.6 nM.
Still for that read-out and setting: to `Cc1nc(C(C)(C)NC(=O)c2ccc(OCC3CC3)c(-c3cccc(Cl)c3)n2)no1` [Example 9, 6-(3-Chlorophenyl)-5-(cyclopropylmethoxy)-N-[2-(5-methyl-1,2,4-oxadiazol-3-yl)propan-2-yl]pyridine-2-carboxamide] belongs 42.4 nM; to `COC1CN(c2ccc(C(=O)N[C@@H](CC3CC3)C(N)=O)nc2OCC2CC2)C1` [Example 10, N-[(2S)-1-amino-3-cyclopropyl-1-oxopropan-2-yl]-6-(cyclopropylmethoxy)-5-(3-methoxyazetidin-1-yl)pyridine-2-carboxamide], 63.4 nM.
The same measure, in the same setting: to `CC(C)(NC(=O)c1ccc(N2CC3(COC3)C2)c(OCC2CC2)n1)c1nccs1` [Example 11, 6-(Cyclopropylmethoxy)-5-(2-oxa-6-azaspiro[3.3]heptan-6-yl)-N-[2-(1,3-thiazol-2-yl)propan-2-yl]pyridine-2-carboxamide] belongs 135 nM; to `CC(C)C[C@H](NC(=O)c1ccc(N2CC3(COC3)C2)c(OCC2CC2)n1)C(N)=O` [Example 12, N-[(2S)-1-amino-4-methyl-1-oxopentan-2-yl]-6-(cyclopropylmethoxy)-5-(2-oxa-6-azaspiro[3.3]heptan-6-yl)pyridine-2-carboxamide], 177 nM; to `CC(C)(NC(=O)c1ccc(OCC2CC2)c(-c2cccc(Cl)c2)n1)c1nccs1` [Example 13, 6-(3-Chlorophenyl)-5-(cyclopropylmethoxy)-N-[2-(1,3-thiazol-2-yl)propan-2-yl]pyridine-2-carboxamide], 23.1 nM.
On to `NC(=O)[C@H](CC1CC1)NC(=O)c1ccc(OCC2CC2)c(OCC2CC2)n1` [Example 14, N-[(2S)-1-Amino-3-cyclopropyl-1-oxopropan-2-yl]-5,6-bis(cyclopropylmethoxy)pyridine-2-carboxamide], for which a half-maximal effect (EC50) was put at 95 nM.
On the same count and under the same terms, to `COC1CN(c2ccc(C(=O)N[C@@H](CC(C)C)C(N)=O)nc2OCC2CC2)C1` [Example 15, N-[(2S)-1-Amino-4-methyl-1-oxopentan-2-yl]-6-(cyclopropylmethoxy)-5-(3-methoxyazetidin-1-yl)pyridine-2-carboxamide] belongs 21.9 nM; to `CSCC[C@H](NC(=O)c1ccc(OCC2CC2)c(Cl)n1)C(N)=O` [Example 16, N-[(2S)-1-Amino-4-methylsulfanyl-1-oxobutan-2-yl]-6-chloro-5-(cyclopropylmethoxy)pyridine-2-carboxamide], 973 nM; to `CCC(CC)(NC(=O)c1ccc(OCC2CC2)c(Cl)n1)C(=O)NC` [Example 17, 6-Chloro-5-(cyclopropylmethoxy)-N-[3-(methylcarbamoyl)pentan-3-yl]pyridine-2-carboxamide], 800 nM.
Still for that read-out and setting: to `Cc1nc([C@H](CC2CC2)NC(=O)c2ccc(OCC3CC3)c(Cl)n2)no1` [Example 18, 6-Chloro-5-(cyclopropylmethoxy)-N-[(1S)-2-cyclopropyl-1-(5-methyl-1,2,4-oxadiazol-3-yl)ethyl]pyridine-2-carboxamide] belongs 646 nM.
As for `CCOC(=O)C(CC)(CC)NC(=O)c1ccc(N2CC(OC)C2)c(OCC2CC2)n1` [Example 20, Ethyl 2-[[6-(cyclopropylmethoxy)-5-(3-methoxyazetidin-1-yl)pyridine-2-carbonyl]amino]-2-ethylbutanoate], the EC50 was 6.5 nM.
On the same count and under the same terms, to `CCC(CC)(NC(=O)c1ccc(N2CC(OC)C2)c(OCC2CC2)n1)C(=O)NCCF` [Example 25, 6-(Cyclopropylmethoxy)-N-[3-(2-fluoroethylcarbamoyl)pentan-3-yl]-5-(3-methoxyazetidin-1-yl)pyridine-2-carboxamide] belongs 334 nM.

Staying with this experiment, now noted: CHO cells expressing human CB2 receptors; read-out: cAMP assay human CB2 EC50.
`COC1CN(c2ccc(C(=O)NC(C)(C)Cc3nnc(-c4ccc(F)cc4)o3)nc2OCC2CC2)C1` [Example 21, 6-(Cyclopropylmethoxy)-N-[1-[5-(4-fluorophenyl)-1,3,4-oxadiazol-2-yl]-2-methylpropan-2-yl]-5-(3-methoxyazetidin-1-yl)pyridine-2-carboxamide]: the EC50 came to 853 nM.
For the molecule `COC1CN(c2ccc(C(=O)NC3(CC(N)=O)COC3)nc2OCC2CC2)C1` [Example 22, N-[3-(2-Amino-2-oxoethyl)oxetan-3-yl]-6-(cyclopropylmethoxy)-5-(3-methoxyazetidin-1-yl)pyridine-2-carboxamide], the EC50 is 67 nM.
As to `CCC(CC)(NC(=O)c1ccc(N2CC(OC)C2)c(OCC2CC2)n1)C(=O)NC` [Example 23, 6-(Cyclopropylmethoxy)-5-(3-methoxyazetidin-1-yl)-N-[3-(methylcarbamoyl)pentan-3-yl]pyridine-2-carboxamide], the concentration for a half-maximal effect (EC50) is 47 nM.
Still for that read-out and setting: next, `COC1CN(c2ccc(C(=O)NCC3(O)CCCCC3)nc2OCC2CC2)C1` [Example 24, 6-(Cyclopropylmethoxy)-N-[(1-hydroxycyclohexyl)methyl]-5-(3-methoxyazetidin-1-yl)pyridine-2-carboxamide]: 1290 nM.
